Measurements: ChEMBL document CHEMBL1141124 (J Med Chem, 2005)
Starred links: 1 amine or outer side, 2 acyl side, 3 side chain; linkers in the order of their positions; H or OH if unused. Non-standard residues stand in square brackets, D forms with d. Residues, ends and D or L forms follow the SMILES beside them. X2 = O=C(c1cc(CN[*:1])cc(Cc2ccc(O)cc2)c1)[*:2]; X1 = O=C(c1cc(Cc2ccc(O)cc2)cc(N[*:1])c1)[*:2]; Phe(4-NH2) = Nc1ccc(C[C@H](N)C(=O)O)cc1

Target: T1, Type-1 angiotensin II receptor B (Rattus norvegicus, UniProt P29089)
T1 sequence (P29089 whole entry): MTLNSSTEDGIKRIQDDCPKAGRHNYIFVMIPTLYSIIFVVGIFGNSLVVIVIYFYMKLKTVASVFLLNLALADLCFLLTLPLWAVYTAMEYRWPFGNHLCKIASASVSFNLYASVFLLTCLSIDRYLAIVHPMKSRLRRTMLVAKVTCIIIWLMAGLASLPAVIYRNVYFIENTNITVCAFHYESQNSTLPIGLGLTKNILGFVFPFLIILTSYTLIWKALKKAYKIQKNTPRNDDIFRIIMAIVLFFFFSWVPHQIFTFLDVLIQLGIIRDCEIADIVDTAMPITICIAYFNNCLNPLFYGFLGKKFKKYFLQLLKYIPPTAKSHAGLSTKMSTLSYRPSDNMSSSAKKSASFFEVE
Assay: Binding affinity for angiotensin II receptor, type 1 in rat liver membrane using [125I]-Ang II as radioligand, in pH 7.4 Tris-HCl buffer for 2 hr at 25 degree C
Assay type: cell membranes

Ki | SMILES
0.00016 µM | CC[C@H](C)[C@H](NC(=O)[C@H](Cc1ccc(O)cc1)NC(=O)[C@@H](NC(=O)[C@H](CCCNC(=N)N)NC(=O)CNC)C(C)C)C(=O)N[C@@H](Cc1cnc[nH]1)C(=O)N1CCC[C@H]1C(=O)N[C@@H](Cc1ccccc1)C(=O)O
> 10 µM | CC[C@H](C)[C@H](NC(=O)[C@H](Cc1ccc(O)cc1)NC(=O)[C@@H](NC(=O)[C@H](CCCN=C(N)N)NC(=O)[C@@H](N)CC(=O)O)C(C)C)C(=O)N[C@@H](Cc1ccc(N)cc1)C(=O)N1CCC[C@H]1C(=O)N[C@@H](Cc1ccccc1)C(=O)O (H-DRVYI[Phe(4-NH2)]PF-OH)
0.0303 µM | CC(C)[C@H](NC(=O)[C@H](CCCN=C(N)N)NC(=O)[C@@H](N)CC(=O)O)C(=O)Nc1cc(Cc2ccc(O)cc2)cc(C(=O)N[C@@H](Cc2c[nH]cn2)C(=O)N2CCC[C@H]2C(=O)N[C@@H](Cc2ccccc2)C(=O)O)c1 (H-DRV[X1]HPF-OH)
> 10 µM | CC(C)[C@H](NC(=O)[C@H](CCCN=C(N)N)NC(=O)[C@@H](N)CC(=O)O)C(=O)NCc1cc(Cc2ccc(O)cc2)cc(C(=O)N[C@@H](Cc2c[nH]cn2)C(=O)N2CCC[C@H]2C(=O)N[C@@H](Cc2ccccc2)C(=O)O)c1 (H-DRV[X2]HPF-OH)
> 10 µM | N=C(N)NCCC[C@H](NC(=O)[C@@H](N)CC(=O)O)C(=O)Nc1cc(Cc2ccc(O)cc2)cc(C(=O)N[C@@H](Cc2cnc[nH]2)C(=O)N2CCC[C@H]2C(=O)N[C@@H](Cc2ccccc2)C(=O)O)c1 (H-DR[X1]HPF-OH)
> 10 µM | NC(N)=NCCC[C@H](NC(=O)[C@@H](N)CC(=O)O)C(=O)NCc1cc(Cc2ccc(O)cc2)cc(C(=O)N[C@@H](Cc2c[nH]cn2)C(=O)N2CCC[C@H]2C(=O)N[C@@H](Cc2ccccc2)C(=O)O)c1 (H-DR[X2]HPF-OH)
> 10 µM | CC[C@H](C)[C@H](NC(=O)c1cc(CNC(=O)[C@H](CCCN=C(N)N)NC(=O)[C@@H](N)CC(=O)O)cc(Cc2ccc(O)cc2)c1)C(=O)N[C@@H](Cc1c[nH]cn1)C(=O)N1CCC[C@H]1C(=O)N[C@@H](Cc1ccccc1)C(=O)O (H-DR[X2]IHPF-OH)
